In US10421755B2, “Salts of aza-bicyclic di-aryl ethers and methods to make them or their precursors” (Novartis AG, priority 2011, dated 2019):

How the values were obtained:
Format in all cases: physicochemical
[1] = Loss on drying / initial water content; set-up: Initial water content: unit not given here; conditions: for Initial water content: comparison table, Example 7
[2] = Known multiple solid forms; conditions: comparison table, Example 7
[3] = Hygroscopicity (moisture gain at relative humidity); set-up: Hygroscopy @ 85% RH: unit not given here; conditions: for moisture gain: at 85% relative humidity (RH); for Hygroscopy @ 85% RH: comparison table, Example 7
[4] = Decomposition temperature; set-up: unit not given here; conditions: comparison table, Example 7
[5] = Stability in buffer solutions and in solid state

| Compound | Loss on drying (LOD) of a sample [1] | Initial water content [1] | Known Multiple forms [2] | hygroscopicity (in words) [3] | moisture gain [3] | Hygroscopy @ 85% RH [3] | Decomposition temperature [4] | solid-state stability [5] | stability in buffer solutions ([5]; many buffer solutions, various pH values) |
| --- | --- | --- | --- | --- | --- | --- | --- | --- | --- |
| Cc1ccc(-c2ccc(O[C@H]3CN4CCC3CC4)cn2)cc1.O=P(O)(O)O [Form A of the mono-phosphate salt, mono-phosphate salt of (R)-3-(6-(4-methylphenyl)-pyridin-3-yloxy)-1-aza-bicyclo[2.2.2]octane] | about 0.5% | ~0.5 | Yes | slightly hygroscopic | 0.2% | 0.2 | 222 |  |  |
| Cc1ccc(-c2ccc(O[C@H]3CN4CCC3CC4)cn2)cc1.O=C(O)CCC(=O)O [Form A of the mono-succinate salt, mono-succinate salt of (R)-3-(6-(4-methylphenyl)-pyridin-3-yloxy)-1-aza-bicyclo[2.2.2]octane] | about 4.5% | ~4.5 | Yes |  | 0.3% | 0.3 | 222 |  |  |
| Cc1ccc(-c2ccc(O[C@H]3CN4CCC3CC4)cn2)cc1.Cl [mono-hydrochloride salt, mono-hydrochloride salt of (R)-3-(6-(4-methylphenyl)-pyridin-3-yloxy)-1-aza-bicyclo[2.2.2]octane] | about 5% | ~5 | Yes | hygroscopic | about 5% | ~5 | 262 |  |  |
| Cc1ccc(-c2ccc(O[C@H]3CN4CCC3CC4)cn2)cc1.O=C(O)/C=C\C(=O)O [mono-maleate salt, mono-maleate salt of (R)-3-(6-(4-methylphenyl)-pyridin-3-yloxy)-1-aza-bicyclo[2.2.2]octane] | < 0.03% | <0.1 | No | slightly hygroscopic | 0.3% | 0.3 | 207 | good | good stability |
| Cc1ccc(-c2ccc(O[C@H]3CN4CCC3CC4)cn2)cc1.O=C(O)CC(=O)O [mono-malonate salt, mono-malonate salt of (R)-3-(6-(4-methylphenyl)-pyridin-3-yloxy)-1-aza-bicyclo[2.2.2]octane] | 0% | ~0 | No | slightly hygroscopic | 1.3% | 1.3 | 148 |  |  |
